Experimental data: paper PMC4660440 (Scientific Reports, 2015)

Legend:
Format in all cases: cell-based
HeLa = assay: MTT cytotoxicity assay, HeLa; settings: Homo sapiens, HeLa, 48 h, drug exposure 48 h, mean ± SD (n = 3), read-out: Cytotoxic activity (IC50) HeLa
Experimental: (§1) HeLa, BGC823, A-549, MCF-7 and HT-7702 cell lines were obtained from the ATCC. […] Tumor cells (3500–13,000) were seeded into 96-well microtest plates in 100 μL of culture medium per well, incubated for 48 h in the presence or absence of test compounds (8 different concentrations ranging from 100 to 0.01 μg/mL). For quantitative estimation of cytotoxicity, the (MTT) method was used, essentially performed as described previously. Briefly, cells were washed twice with PBS, fixed for 15 min in 1% glutaraldehyde solution, rinsed twice in PBS, and stained in 0.5% MTT solution for 4 h at 37 °C. […] The initial seeding densities varied among the cell lines to ensure a final absorbance reading in control (untreated) cultures within the range of 0.6–0.8 A492 units. Drug exposure was carried out for 2 days, and the IC50 value, i.e., the drug concentration that decreased the absorbance by 50%, was extrapolated from dose-response data. Each test was performed in triplicate, and the absorbance readings between the triplicates varied by no more than 10%.

BGC-823 = assay: MTT cytotoxicity assay, BGC-823; settings: Homo sapiens, BGC-823, drug exposure 48 h, mean ± SD (n = 3), read-out: Cytotoxic activity (IC50) BGC-823
Experimental: as §1

A549 = assay: MTT cytotoxicity assay, A549; settings: Homo sapiens, A549, drug exposure 48 h, mean ± SD (n = 3), read-out: Cytotoxic activity (IC50) A549
Experimental: as §1

[1] = MTT cytotoxicity assay, normal hepatic cell line HL-7702; settings: HL-7702 normal hepatic cells, human normal hepatic immortal cell line, drug exposure 48 h, mean ± SD (n = 3), read-out: Cytotoxic activity (IC50) HL-7702
Experimental: as §1

MCF-7 = assay: MTT cytotoxicity assay, MCF-7; settings: Homo sapiens, MCF7, drug exposure 48 h, mean ± SD (n = 3), read-out: Cytotoxic activity (IC50) MCF-7
Experimental: as §1

| Structure (SMILES) | IC50 (HeLa) | IC50 (BGC-823) | IC50 (A549) | IC50 at 48 h [1] | IC50 (MCF-7) |
| --- | --- | --- | --- | --- | --- |
| COc1cc([C@@H]2c3cc4c(cc3[C@@H](Nc3ccc(Cl)cc3)[C@H]3COC(=O)[C@H]23)OCO4)cc(OC)c1OC [Compound 9] | 21.32 ± 0.11 µM | 23.1 ± 1.74 µM | 22.8 ± 1.08 µM | 41.6 ± 3.11 µM | 19.3 ± 1.43 µM |
| COc1ccc(F)cc1N[C@@H]1c2cc3c(cc2[C@@H](c2cc(OC)c(OC)c(OC)c2)[C@H]2C(=O)OC[C@@H]21)OCO3 [Compound 16] | 1.46 ± 0.19 µM | 1.37 ± 0.17 µM | 1.43 ± 0.09 µM | 27.7 ± 0.77 µM | 1.92 ± 0.23 µM |
| COc1ccccc1N[C@@H]1c2cc3c(cc2[C@@H](c2cc(OC)c(O)c(OC)c2)[C@H]2C(=O)OC[C@@H]21)OCO3 [Compound 11′] | 13.5 ± 1.38 µM | 9.68 ± 0.17 µM | 8.68 ± 0.29 µM | 63.57 ± 0.19 µM | 9.42 ± 0.24 µM |
| COc1cc([C@@H]2c3cc4c(cc3[C@@H](Nc3ccc(Br)cc3)[C@H]3COC(=O)[C@H]23)OCO4)cc(OC)c1O [Compound 8′] | 21.07 ± 0.17 µM | 62.1 ± 4.39 µM | 62.4 ± 3.66 µM | 32.1 ± 0.96 µM | 28.9 ± 1.06 µM |
| COc1ccc(Br)cc1N[C@@H]1c2cc3c(cc2[C@@H](c2cc(OC)c(OC)c(OC)c2)[C@H]2C(=O)OC[C@@H]21)OCO3 [Compound 14] | 7.07 ± 0.63 µM | 6.26 ± 0.36 µM | 6.85 ± 0.75 µM | 87.6 ± 4.13 µM | 4.97 ± 0.03 µM |
| COc1cc([C@@H]2c3cc4c(cc3[C@@H](Nc3ccccc3F)[C@H]3COC(=O)[C@H]23)OCO4)cc(OC)c1O [Compound 4′] | 20.7 ± 0.75 µM | 17.8 ± 0.34 µM | 15.6 ± 1.75 µM | 31.5 ± 2.81 µM | 15.3 ± 0.42 µM |
| COc1cc([C@@H]2c3cc4c(cc3[C@@H](Nc3ccccc3F)[C@H]3COC(=O)[C@H]23)OCO4)cc(OC)c1OC [Compound 4] | 22.1 ± 0.81 µM | 22.7 ± 0.97 µM | 16.8 ± 1.22 µM | 16 ± 0.66 µM | 16.1 ± 0.17 µM |
| COc1cc([C@@H]2c3cc4c(cc3[C@@H](Nc3ccccc3Br)[C@H]3COC(=O)[C@H]23)OCO4)cc(OC)c1OC [Compound 2] | 26.6 ± 2.03 µM | 17.9 ± 0.98 µM | 35.1 ± 2.37 µM | 65.9 ± 2.37 µM | 29.1 ± 1.78 µM |
| COc1ccc(Cl)cc1N[C@@H]1c2cc3c(cc2[C@@H](c2cc(OC)c(OC)c(OC)c2)[C@H]2C(=O)OC[C@@H]21)OCO3 [Compound 15] | 2.64 ± 0.04 µM | 3.86 ± 0.29 µM | 1.71 ± 0.26 µM | 19.3 ± 1.34 µM | 2.24 ± 0.14 µM |
| COc1ccc(F)cc1N[C@@H]1c2cc3c(cc2[C@@H](c2cc(OC)c(O)c(OC)c2)[C@H]2C(=O)OC[C@@H]21)OCO3 [Compound 16′] | 1.72 ± 0.3 µM | 1.32 ± 0.16 µM | 3.17 ± 0.49 µM | 24.3 ± 0.69 µM | 1.53 ± 0.07 µM |
| COc1cc([C@@H]2c3cc4c(cc3[C@@H](Nc3ccccc3Cl)[C@H]3COC(=O)[C@H]23)OCO4)cc(OC)c1O [Compound 3′] | 23.4 ± 1.4 µM | 23.1 ± 1.87 µM | 20.5 ± 0.42 µM | 2.42 ± 0.71 µM | 37.5 ± 1.03 µM |
| COc1cc([C@@H]2c3cc4c(cc3[C@@H](Nc3ccccc3)[C@H]3COC(=O)[C@H]23)OCO4)cc(OC)c1O [Compound 1′] | 44.34 ± 0.34 µM | 68.2 ± 4.13 µM | 42.5 ± 5.11 µM | 53.4 ± 4.34 µM | 26.8 ± 0.67 µM |
| COc1cc([C@@H]2c3cc4c(cc3[C@@H](Nc3ccccc3)[C@H]3COC(=O)[C@H]23)OCO4)cc(OC)c1OC [Compound 1] | 35.1 ± 1.03 µM | 86.5 ± 4.21 µM | 43.2 ± 3.32 µM | 41.8 ± 2.47 µM |  |
| COc1cc([C@@H]2c3cc4c(cc3[C@@H](Nc3ccc(F)cc3)[C@H]3COC(=O)[C@H]23)OCO4)cc(OC)c1O [Compound 10′] | 16.32 ± 0.09 µM | 28.61 ± 0.06 µM | 17.7 ± 0.47 µM | 29.6 ± 2.33 µM | 9.84 ± 0.73 µM |
| COc1cc([C@@H]2c3cc4c(cc3[C@@H](Nc3ccccc3Cl)[C@H]3COC(=O)[C@H]23)OCO4)cc(OC)c1OC [Compound 3] | 26.7 ± 1.32 µM | 18.1 ± 1.03 µM | 27.2 ± 1.95 µM | 13.2 ± 1.35 µM | 21.1 ± 0.76 µM |
